According to paper PMC11191101, “Investigation of Newly Synthesized Fluorinated Isatin-Hydrazones by In Vitro Antiproliferative Activity, Molecular Docking, ADME Analysis, and e-Pharmacophore Modeling” (ACS Omega, 2024):
Entries after “also recorded” stand apart in the source; their conditions may differ.

Legend:
[1] = test system: HepG2 human liver epithelial carcinoma cell line; assay: MTT cytotoxicity, HepG2 liver cancer cells; format: cell-based; settings: for IC50: Homo sapiens, HepG2, MTT, 72 h, 200, 100, 50, 25 μM tested; for cytotoxic effect on HepG2 liver cancer cell line (in words) / selectivity index (SI), HEK-293T IC50 / HepG2 IC50: 72 h; for cytotoxic effect on HepG2 liver cancer cell line (in words): up to 200 μM; for selectivity index (SI), HEK-293T IC50 / HepG2 IC50: IC50 >200 taken as 200
Method: (§1) Compounds (1–15) were screened in two cancer and normal cell lines at concentrations of 200, 100, 50, and 25 μM for 72 h.
(§2) This section of the study was performed following the procedure described in our previous study.[51],[52] The human lung cancer cell line (A549; ATCC CCL-185), human liver cancer cell line (HepG2; ATCC HB-8065), and human normal embryonic kidney cell line (HEK-293T) were cultured in high-glucose Dulbecco’s modified Eagle’s medium supplemented with 10% fetal bovine serum and 1% glutamax. Cells were seeded at a density of 5 × 10^3 cells/well in sterile 96-well plates and incubated for 24 h. Following incubation, the cells were exposed to the prepared compounds (1–15) and cisplatin at 200, 100, 50, and 25 μM concentrations for 72 h. After the incubation period, the medium in the plates was carefully removed and the prepared MTT solution was added to each well of the plates. The plates were incubated for 2 h in an incubator. Absorbance was measured using an Epoch 2 ELISA plate reader at 590 nm. The IC50 values were calculated using GraphPad Prism Software version 5.

[2] = test system: HEK-293T human normal embryonic kidney cell line; assay: MTT toxicity, HEK-293T normal cells; format: cell-based; settings: 72 h; for IC50: MTT, normal cell line, 200, 100, 50, 25 μM tested; for toxic effect on healthy HEK-293T cells (in words): up to 200 μM
Method: as §1, §2

[3] = test system: A549 human lung epithelial carcinoma cell line; assay: MTT cytotoxicity, A549 lung cancer cells; format: cell-based; settings: for cytotoxic effect on A549 lung cancer cell line (in words) / selectivity index (SI), HEK-293T IC50 divided by A549 IC50: 72 h; for cytotoxic effect on A549 lung cancer cell line (in words): up to 200 μM; for IC50: MTT, 72 h, 200, 100, 50, 25 μM tested; for selectivity index (SI), HEK-293T IC50 divided by A549 IC50: IC50 >200 taken as 200
Method: as §1, §2

O=C1Nc2ccc(F)cc2C1=NN=Cc1ccc(O)cc1 [Compound 11, 5-Fluoro-3-{[4-hydroxybenzylidene]hydrazinylidene}indolin-2-one]
IC50 [1]: > 200 µM | IC50 ([2]; Homo sapiens, HEK-293T): > 200 µM | melting point: 275 to 276 °C | cytotoxic effect on A549 lung cancer cell line (in words) [3]: not active | IC50 ([3]; Homo sapiens, A549): > 200 µM

COc1cccc(C=NN=C2C(=O)Nc3ccc(F)cc32)c1O [Compound 12, 5-Fluoro-3-{[2-hydroxy-3-methoxybenzylidene]hydrazinylidene}indolin-2-one]
IC50 [1]: > 200 µM | IC50 ([2]; Homo sapiens, HEK-293T): > 200 µM | melting point: 244 to 246 °C | cytotoxic effect on A549 lung cancer cell line (in words) [3]: cytotoxic effect | selectivity index (SI), HEK-293T IC50 divided by A549 IC50 [3]: > 1.33 | IC50 ([3]; Homo sapiens, A549): 150 µM

NN=C1C(=O)Nc2ccc(F)cc21 [Compound 1, 5-Fluoro-3-hydrazonoindolin-2-one]
IC50 [1]: > 200 µM | IC50 ([2]; Homo sapiens, HEK-293T): > 200 µM | melting point: 203 to 204 °C | cytotoxic effect on A549 lung cancer cell line (in words) [3]: not active | IC50 ([3]; Homo sapiens, A549): > 200 µM

COc1ccc(C=NN=C2C(=O)Nc3ccc(F)cc32)cc1O [Compound 14, 5-Fluoro-3-{[3-hydroxy-4-methoxybenzylidene]hydrazinylidene}indolin-2-one]
IC50 [1]: > 200 µM | IC50 ([2]; Homo sapiens, HEK-293T): > 200 µM | melting point: 263 to 264 °C | cytotoxic effect on A549 lung cancer cell line (in words) [3]: cytotoxic effect | selectivity index (SI), HEK-293T IC50 divided by A549 IC50 [3]: > 1.73 | IC50 ([3]; Homo sapiens, A549): 115 µM

O=C1Nc2ccc(F)cc2C1=NN=Cc1ccccc1O [Compound 9, 5-Fluoro-3-{[2-hydroxybenzylidene]hydrazinylidene}indolin-2-one]
IC50 [1]: > 200 µM | toxic effect on healthy HEK-293T cells (in words) [2]: toxic effect | IC50 ([2]; Homo sapiens, HEK-293T): 142 µM | melting point: 252 to 253 °C | cytotoxic effect on A549 lung cancer cell line (in words) [3]: not active | IC50 ([3]; Homo sapiens, A549): > 200 µM

O=C1Nc2ccc(F)cc2C1=NN=Cc1ccc(Br)cc1 [Compound 3, 5-Fluoro-3-{[4-bromobenzylidene]hydrazinylidene}indolin-2-one]
IC50 [1]: > 200 µM | toxic effect on healthy HEK-293T cells (in words) [2]: highly toxic effects | IC50 ([2]; Homo sapiens, HEK-293T): 25 µM | melting point: 262 to 263 °C | cytotoxic effect on A549 lung cancer cell line (in words) [3]: cytotoxic effect | selectivity index (SI), HEK-293T IC50 divided by A549 IC50 [3]: 0.13 | IC50 ([3]; Homo sapiens, A549): 186 µM

O=C1Nc2ccc(F)cc2C1=NN=Cc1ccc(Cl)cc1 [Compound 4, 5-Fluoro-3-{[4-chlorobenzylidene]hydrazinylidene}indolin-2-one]
IC50 [1]: > 200 µM | toxic effect on healthy HEK-293T cells (in words) [2]: toxic effect; also recorded: highly toxic effects | IC50 ([2]; Homo sapiens, HEK-293T): 29.3 µM | melting point: 257 to 258 °C | cytotoxic effect on A549 lung cancer cell line (in words) [3]: not active | IC50 ([3]; Homo sapiens, A549): > 200 µM

N.N.[Cl][Pt][Cl] [cisplatin, reference compound]
IC50 [2]: 7.48 µM | IC50 [3]: 4.19 µM

O=C1Nc2ccc(F)cc2C1=NN=Cc1ccccc1 [Compound 2, 5-Fluoro-3-{[benzylidene]hydrazinylidene}indolin-2-one]
IC50 [1]: > 200 µM | IC50 ([2]; Homo sapiens, HEK-293T): > 200 µM | melting point: 229 to 230 °C | cytotoxic effect on A549 lung cancer cell line (in words) [3]: not active | IC50 ([3]; Homo sapiens, A549): > 200 µM

COc1ccc(C=NN=C2C(=O)Nc3ccc(F)cc32)cc1 [Compound 7, 5-Fluoro-3-{[4-methoxybenzylidene]hydrazinylidene}indolin-2-one]
cytotoxic effect on HepG2 liver cancer cell line (in words) [1]: cytotoxic effects | selectivity index (SI), HEK-293T IC50 / HepG2 IC50 [1]: 1.29 | IC50 [1]: 153 µM | IC50 ([2]; Homo sapiens, HEK-293T): 197 µM | melting point: 247 to 248 °C | cytotoxic effect on A549 lung cancer cell line (in words) [3]: not active | IC50 ([3]; Homo sapiens, A549): > 200 µM

Cc1ccc(C=NN=C2C(=O)Nc3ccc(F)cc32)cc1 [Compound 6, 5-Fluoro-3-{[4-methylbenzylidene]hydrazinylidene}indolin-2-one]
IC50 [1]: > 200 µM | toxic effect on healthy HEK-293T cells (in words) [2]: toxic effect | IC50 ([2]; Homo sapiens, HEK-293T): 140 µM | melting point: 241 to 242 °C | cytotoxic effect on A549 lung cancer cell line (in words) [3]: not active | IC50 ([3]; Homo sapiens, A549): > 200 µM

COc1cc(C=NN=C2C(=O)Nc3ccc(F)cc32)ccc1O [Compound 15, 5-Fluoro-3-{[4-hydroxy-3-methoxybenzylidene]hydrazinylidene}indolin-2-one]
IC50 [1]: > 200 µM | IC50 ([2]; Homo sapiens, HEK-293T): > 200 µM | melting point: 232 to 233 °C | cytotoxic effect on A549 lung cancer cell line (in words) [3]: not active | IC50 ([3]; Homo sapiens, A549): > 200 µM

O=C1Nc2ccc(F)cc2C1=NN=Cc1ccc(F)cc1 [Compound 5, 5-Fluoro-3-{[4-fluorobenzylidene]hydrazinylidene}indolin-2-one]
cytotoxic effect on HepG2 liver cancer cell line (in words) [1]: cytotoxic effects | selectivity index (SI), HEK-293T IC50 / HepG2 IC50 [1]: 1.78 | IC50 [1]: 108 µM | toxic effect on healthy HEK-293T cells (in words) [2]: did not show high toxicity | IC50 ([2]; Homo sapiens, HEK-293T): 193 µM | melting point: 246 to 248 °C | cytotoxic effect on A549 lung cancer cell line (in words) [3]: not active | IC50 ([3]; Homo sapiens, A549): > 200 µM

O=C1Nc2ccc(F)cc2C1=NN=Cc1ccc([N+](=O)[O-])cc1 [Compound 8, 5-Fluoro-3-{[4-nitrobenzylidene]hydrazinylidene}indolin-2-one]
cytotoxic effect on HepG2 liver cancer cell line (in words) [1]: cytotoxic effects | selectivity index (SI), HEK-293T IC50 / HepG2 IC50 [1]: 0.12 | IC50 [1]: 48.4 µM | IC50 ([2]; Homo sapiens, HEK-293T): 6.04 µM | melting point: 249 to 251 °C | cytotoxic effect on A549 lung cancer cell line (in words) [3]: cytotoxic effect | selectivity index (SI), HEK-293T IC50 divided by A549 IC50 [3]: 0.14 | IC50 ([3]; Homo sapiens, A549): 42.4 µM

COc1ccc(C=NN=C2C(=O)Nc3ccc(F)cc32)c(O)c1 [Compound 13, 5-Fluoro-3-{[2-hydroxy-4-methoxybenzylidene]hydrazinylidene}indolin-2-one]
IC50 [1]: > 200 µM | IC50 ([2]; Homo sapiens, HEK-293T): > 200 µM | melting point: 257 to 258 °C | cytotoxic effect on A549 lung cancer cell line (in words) [3]: not active | IC50 ([3]; Homo sapiens, A549): > 200 µM

O=C1Nc2ccc(F)cc2C1=NN=Cc1cccc(O)c1 [Compound 10, 5-Fluoro-3-{[3-hydroxybenzylidene]hydrazinylidene}indolin-2-one]
cytotoxic effect on HepG2 liver cancer cell line (in words) [1]: cytotoxic effects | selectivity index (SI), HEK-293T IC50 / HepG2 IC50 [1]: 0.52 | IC50 [1]: 166 µM | IC50 ([2]; Homo sapiens, HEK-293T): 87 µM | melting point: 260 to 261 °C | cytotoxic effect on A549 lung cancer cell line (in words) [3]: cytotoxic effect | selectivity index (SI), HEK-293T IC50 divided by A549 IC50 [3]: 0.48 | IC50 ([3]; Homo sapiens, A549): 180 µM
